Entries after “also recorded” stand apart in the source; their conditions may differ.
Experiments:
[1] = test system: Human primary dermal fibroblasts (HDFa); assay: Intracellular NAD measurement in human primary dermal fibroblasts; type: cell-based; conditions: different concentrations, 3 hrs, absorbance at 405 nm
Description: Human primary dermal fibroblasts derived from adult human skins (HDFa, Life technologies, Grand Island, N.Y., Passage 2-4) were grown in Medium 106 (Life Technologies) supplemented with Low Serum Growth Supplement (LSGS) (Life Technologies) and seeded in 12-well plates with density at 2×10^5 cells per well and 2 ml of culture medium in each well.
Stock solution of dihydronicotinamide riboside (NRH, GSK3008320A, GSK, RTP, NC) was prepared in ethanol at 100 mM (25.6 mg/ml) and stored at −20° C. Cells were treated with different concentrations of NRH for 3 hrs, washed twice with PBS containing 5 mM EDTA, and then subject to Nicotinamide adenine dinucleotide (NAD) measurement. In brief, acetonitrile (ACN) lysis buffer (Ammonium Acetate (50 mM) and 90% acetonitrile) was added to each well (200 μl/well) to lyse the cells at RT for 5-10 mins by gently rotating on a culture plate shaker at a low speed. […] At the end of incubation, the supernatant (200 μl) of the reaction solution from each well was transferred to each well of a 96-well plate and absorbance was read twice in the 96-well plate at 405 nm using a plate reader (Spectra Maxplus, Molecular Devices, Sunnyvale, Calif.). […]

HaCaT cells = assay: H2O2-induced reactive oxygen species (ROS) in HaCaT cells (CellROX deep red); type: cell-based, human; conditions: 3 hr pre-incubation then 250 μM H2O2, Hydroxyterosol 0.005%, niacinamide 4.5 mM, NRH several concentrations
Description: HaCaT cells were grown as described in example 23 and were seeded in 96-well plates (Nunc™ black with optical bottom, Thermo Fisher Scientific, Inc., Waltham, Mass.) with a density at 2×10^4 cells per well and 100 μl medium in each well, and grown overnight before treatments. Stock solutions of NRH and other test compounds were prepared and diluted to 2× of final treatment concentrations in DMEM medium in 96-well storage plate as indicated in the FIG. 11. HaCaT Cells were treated in triplicates by adding 100 μl of diluted solutions of test compounds (2×) to each well containing 100 μl medium already. Cells were incubated in the presence of test compounds for 3 hrs. At the end of 3 hr incubation, cells were washed once with 200 μl DPBS with Ca^++ and Mg^++ (Life Technologies) and then fed with 100 μl DMEM medium each well containing H2O2 at 250 μM (as a ROS (reactive oxygen species) inducer, Sigma). After 30 min incubation, cells were washed once with 200 μl DPBS with Ca^++ and Mg^++ and CellROX deep red reagent (2.5 mM stock solution, Life Technologies) was added to the medium to a final concentration of 5 μM. After 1 hr incubation at 37° C., 5% CO2, Cells were washed for 3 times with DPBS, fluorescence signal was read at Ex. 640 nm and Em. 665 nm in Biotek Synergy H4 microplate reader (BioTek, Winooski, Vt.). Untreated cells were served as controls (normalized to 1). All the treated samples were normalized to the untreated control.

Human dermal fibroblasts [2] = assay: TNFα-induced gene expression in dermal fibroblasts (QPCR); type: cell-based; conditions: 30 hr
Description: Human dermal fibroblasts were grown in regular culture media as described in example 23 above and seeded in 12-well plates at 2×10^5 cells per well for overnight. Cells were then replenished with fresh medium and treated with TNFα (10 ng/ml) with and without NRH (200 μM) for 30 hr. At the end of the incubation, cells were washed once with HBSS with Ca^2+ and Mg^2+ (Life Technologies), and subject to RNA isolation and QPCR analyses.

Human dermal fibroblasts [3] = assay: UVA-induced gene expression in dermal fibroblasts (QPCR); type: cell-based; conditions: NRH 200 μM for 5 days, UVA 5 or 7.5 J/cm^2
Description: Human dermal fibroblasts were grown in regular culture media as described in example 1 and seeded in 12-well plates at 2×10^5 cells per well for overnight. Before UVA exposure, culture media were removed and PBS (500 μl) was added to each well. Cells were treated with NRH at 200 μM in culture media for 5 days, and only exposed to UVA at 5 J/cm^2 or 7.5 J/cm^2 every other day on day 0 and day 3. The Newport DS-101103 UV Solar Simulator with UV-A-F filter (Sol-UV-A-F) (Newport Corporate) was used as the UVA emitter. Measurement of the irradiation was taken using an ILT-1400-A radiometer/photometer with a UVA probe (SSL001A, international light technologies, Inc.). After UVA exposure, PBS was removed from each well and media with NRH were added to cells. Cells were harvested for RNA isolation after 5 days treatment.

[4] = Gravimetric Vapor Sorption (GVS); type: physicochemical
Outline: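 Samples dried under nitrogen 5 h at 25 °C, then sorption ramp from 5% to 95% or 90% RH and desorption back to 5% or 10% RH, all at 25 °C. Each RH step held 4 h; mass change by microbalance.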

- GVS weight gain ([4]; 90% RH, 25° C., after drying): greater than 60 % w/w
- hygroscopicity by GVS ([4]; GVS isotherm 25° C.): hygroscopic
SMILES: NC(=O)C1=CN([C@@H]2O[C@H](CO)[C@@H](O)[C@H]2O)C=CC1 [NRH, dihydronicotinamide riboside]
- NAD level [1]: dose-dependently increases NAD; also recorded: dose-dependently increases NAD^+
- H2O2-induced ROS (HaCaT cells): dose-dependent inhibitory activities
- basal COX-2 gene expression (Human dermal fibroblasts [2]; NRH 200 μM): reduced
- expression level of NRF2 (Human dermal fibroblasts [2]; NRH 200 μM): slightly increased
- TNF-α-induced COX-2 gene expression (Human dermal fibroblasts [2]; TNFα 10 ng/ml with NRH 200 μM): reduced
- COX-2 expression compared to UVA alone (Human dermal fibroblasts [3]): reduced; also recorded: decreases
- NQO-1 expression compared to UVA alone (Human dermal fibroblasts [3]): increases
- NRF-2 expression compared to UVA alone (Human dermal fibroblasts [3]): increases
